Measurements: patent US20230041738A1, “1H-PYRAZOLO[4,3-d]PYRIMIDINE COMPOUNDS AS TOLL-LIKE RECEPTOR 7 (TLR7) AGONISTS” (BRISTOL-MYERS SQUIBB COMPANY, priority 2020, published 2023)

Columns and labels:
human TLR7 = molecular target: T1, human TLR7 (Homo sapiens, UniProt Q9NYK1); experiment: Human TLR7 agonist activity assay (hTLR7 reporter, HEK-Blue TLR7 cells, SEAP); assay type: cell-based; settings: HEK-Blue TLR7 cells with SEAP reporter, 18 h treatment; average where assay performed multiple times
T1 construct: host or cells: HEK-Blue TLR7 cells (engineered human embryonic kidney cells)
T1 sequence (Q9NYK1 27-1049): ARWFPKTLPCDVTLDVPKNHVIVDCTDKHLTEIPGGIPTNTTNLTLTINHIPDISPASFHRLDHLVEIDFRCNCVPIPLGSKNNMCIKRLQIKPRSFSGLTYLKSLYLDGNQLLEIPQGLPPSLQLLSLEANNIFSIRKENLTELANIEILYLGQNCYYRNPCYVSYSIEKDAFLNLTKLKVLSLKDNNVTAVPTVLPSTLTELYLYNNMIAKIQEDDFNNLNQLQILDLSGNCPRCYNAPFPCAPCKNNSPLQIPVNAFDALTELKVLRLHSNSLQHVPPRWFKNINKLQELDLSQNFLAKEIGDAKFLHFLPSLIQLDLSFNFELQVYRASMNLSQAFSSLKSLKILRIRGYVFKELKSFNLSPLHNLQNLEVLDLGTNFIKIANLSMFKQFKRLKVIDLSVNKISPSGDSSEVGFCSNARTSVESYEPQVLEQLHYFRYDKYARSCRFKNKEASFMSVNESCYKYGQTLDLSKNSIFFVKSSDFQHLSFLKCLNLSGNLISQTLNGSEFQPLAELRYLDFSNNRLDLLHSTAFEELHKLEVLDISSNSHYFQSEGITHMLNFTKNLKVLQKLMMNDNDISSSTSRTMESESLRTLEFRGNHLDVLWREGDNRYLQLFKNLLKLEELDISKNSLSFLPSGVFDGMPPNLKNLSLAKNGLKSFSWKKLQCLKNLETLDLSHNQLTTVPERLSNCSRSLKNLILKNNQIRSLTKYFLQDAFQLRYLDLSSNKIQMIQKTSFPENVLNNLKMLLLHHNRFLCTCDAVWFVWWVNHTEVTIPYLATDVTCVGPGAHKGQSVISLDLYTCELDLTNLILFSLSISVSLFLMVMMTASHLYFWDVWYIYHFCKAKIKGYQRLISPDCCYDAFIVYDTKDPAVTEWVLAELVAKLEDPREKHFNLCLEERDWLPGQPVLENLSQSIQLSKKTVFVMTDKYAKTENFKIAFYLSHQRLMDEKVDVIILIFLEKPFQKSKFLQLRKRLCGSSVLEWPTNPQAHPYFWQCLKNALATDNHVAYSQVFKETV
Experimental: This procedure describes a method for assaying human TLR7 (hTLR7) agonist activity of the compounds disclosed in this specification.
HEK-Blue™ TLR7 cells were added to each well of a 384-well tissue-culture plate (15,000 cells per well) and incubated 16-18 h at 37° C., 5% CO2. Compounds (100 nl) were dispensed into wells containing the HEK-Blue™ TLR cells and the treated cells were incubated at 37° C., 5% CO2. After 18 h treatment ten microliters of freshly-prepared Quanti-Blue™ reagent (Invivogen) was added to each well, incubated for 30 min (37° C., 5% CO2) and SEAP levels measured using an Envision plate reader (OD=620 nm). The half maximal effective concentration values (EC50; compound concentration which induced a response halfway between the assay baseline and maximum) were calculated.

CD69 = experiment: Induction of CD69 in human whole blood (hWB); assay type: cell-based; settings: 17 hrs at 37 C, CD69 surface staining, 100% set to 1 uM resiquimod, average where performed multiple times
Experimental: The induction of Type I interferon (IFN) MX-1 genes and the B-cell activation marker CD69 are downstream events that occur upon activation of the TLR7 pathway. The following is a human whole blood assay that measures their induction in response to a TLR7 agonist.
Heparinized human whole blood was harvested from human subjects and treated with test TLR7 agonist compounds at 1 mM. The blood was diluted with RPMI 1640 media and Echo was used to predot 10 nL per well giving a final concentration of 1 uM (10 nL in 10 uL of blood). After mixing on a shaker for 30 sec, the plates were covered and placed in a 37° C. chamber for o/n=17 hrs. Fixing/lysis buffer was prepared (5×→1× in H2O, warm at 37° C.; Cat #BD 558049) and kept the perm buffer (on ice) for later use.
For surface markers staining (CD69): prepared surface Abs: 0.045 ul hCD14-FITC (ThermoFisher Cat #MHCD1401)+0.6 ul hCD19-ef450 (ThermoFisher Cat #48-0198-42)+1.5 ul hCD69-PE (cat #BD555531)+0.855 ul FACS buffer. Added 3 ul/well, spin1000 rpm for 1 min and mixed on shaker for 30 sec, put on ice for 30 mins. Stop stimulation after 30 min with 70 uL of prewarmed 1× fix/lysis buffer and use Feliex mate to resuspend (15 times, change tips for each plate) and incubate at 37C for 10 min.
Centrifuge at 2000 rpm for 5 min aspirate with HCS plate washer, mix on shaker for 30 sec and then wash with 70 uL in dPBS and pelleted 2× s (2000 rpm for 5 min) and 50 ul wash in FACS buffer pelleted 1×s(2000 rpm for 5 min). Mix on shaker for 30 sec. For Intracellular markers staining (MX-1): Add 50 ul of BD Perm buffer III and mix on shaker for 30 sec. Incubate on ice for 30 min (in the dark). Wash with 50 uL of FACS buffer 2× (spin @2300 rpm×5 min after perm) followed by mixing on shaker for 30 sec. Resuspended in 20 ul of FACS buffer containing MX1 antibody ( )(4812)-Alexa 647: Novus Biologicals #NBP2-43704AF647) 20 ul FACS bf+0.8 ul hlgG+0.04 ul MX-1. Spin 1000 rpm for 1 min, mix on shaker for 30se and the samples were incubated at RT in the dark for 45 min followed by washing 2× FACS buffer (spin @2300 rpm×5 min after perm). Resuspend 20 ul (35 uL total per well) of FACS buffer and cover with foil and place in 4° C. to read the following day. Plates were read on iQuePlus. The results were loaded into toolset and IC50 curves are generated in curve master. The y-axis 100% is set to 1 uM of resiquimod.

Structure (SMILES)	EC50 (human TLR7)	EC50 (CD69)
CCC[C@@H](CCO)Nc1nc(N)nc2cnn(Cc3ccc(CN4C[C@H]5CN(C)C[C@H]5C4)cc3OC)c12 [Compound 122, (3S)-3-({1-[(4-{[(3aR,6aS)-5-methyl-octahydropyrrolo[3,4-c]pyrrol-2-yl]methyl}-2-methoxyphenyl)methyl]-5-amino-1H-pyrazolo[4,3-d]pyrimidin-7-yl}amino)hexan-1-ol]	7.2 nM	0.7 nM
CCCCNc1nc(N)nc2cnn(Cc3ccc(CN4C[C@H]5CN(CCO)C[C@H]5C4)cc3OC)c12 [Compound 139, 2-[(3aR,6aS)-5-[(4-{[5-amino-7-(butylamino)-1H-pyrazolo[4,3-d]pyrimidin-1-yl]methyl}-3-methoxy-pheny)methyl]-octahydropyrrolo[3,4-c]pyrrol-2-yl]ethan-1-ol]	19.6 nM	1.9 nM
CCCCNc1nc(N)nc2cnn(Cc3ccc(C(=O)N4C[C@H]5CN(C)C[C@H]5C4)cc3OC3CC3)c12 [Compound 118, 1-({4-[(3aR,6aS)-5-methyl-octa-hydropyrrolo[3,4-c]pyrrole-2-carbonyl]-2-cyclopropoxyphenyl}-methyl)-N7-butyl-1H-pyrazolo[4,3-d]pyrimidine-5,7-diamine]	339 nM	51.8 nM
COc1cc(CN2C[C@@H]3C[C@H]2CN3C)ccc1Cn1ncc2nc(N)nc(NCc3noc(C)n3)c21 [Compound 130, 1-[(2-methoxy-4-{[(1S,4S)-5-methyl-2,5-diazabicyclo[2.2.1]-heptan-2-yl]methyl}phenyl)methyl]-N7-[(5-methyl-1,2,4-oxa-diazol-3-yl)methyl]-1H-pyrazolo[4,3-d]pyrimidine-5,7-diamine]	135 nM	74.3 nM
CCCCNc1nc(N)nc2cnn(Cc3ccc(C(=O)N4C[C@H]5C[C@@H]4CN5C)cc3OC)c12 [Compound 110, N7-butyl-1-({2-methoxy-4-[(1R,4R)-5-methyl-2,5-diazabicyclo-[2.2.1]heptane-2-carbonyl]-phenyl}methyl)-1H-pyrazolo[4,3-d]pyrimidine-5,7-diamine]	378 nM	2 nM
CCCCNc1nc(N)nc2cnn(Cc3ccc(C(=O)N4C[C@H]5CNC[C@H]5C4)cc3OC(F)F)c12 [Compound 123, 1-({4-[(3aR,6aS)-octahydro-pyrrolo[3,4-c]pyrrole-2-carbonyl]-2-(difluoromethoxy)phenyl}methyl)-N7-butyl-1H-pyrazolo[4,3-d]pyrimidine-5,7-diamine]	2240 nM	482 nM
CCC[C@@H](CCO)Nc1nc(N)nc2cnn(Cc3cnc(CN4C[C@H]5CNC[C@H]5C4)cc3OC)c12 [Compound 133, (3S)-3-({1-[(6-{[(3aR,6aS)-octa-hydropyrrolo[3,4-c]pyrrol-2-yl]methyl}-4-methoxypyridin-3-yl)methyl]-5-amino-1H-pyrazolo[4,3-d]pyrimidin-7-yl}amino)hexan-1-ol]	89.9 nM	2.8 nM
COc1cc(CN2C[C@H]3C[C@@H]2CN3C)ccc1Cn1nc(C)c2nc(N)nc(NCc3cc(C)on3)c21 [Compound 128, 1-[(2-methoxy-4-{[(1R,4R)-5-methyl-2,5-diazabicyclo[2.2.1]-heptan-2-yl]methyl}phenyl)-methyl]-3-methyl-N7-[(5-methyl-1,2-oxazol-3-yl)methyl]-1H-pyra-zolo[4,3-d]pyrimidine-5,7-diamine]	74.4 nM	28 nM
COc1cc(CN2C[C@H]3C[C@@H]2CN3C)ccc1Cn1ncc2nc(N)nc(N[C@H](CO)CC3CC3)c21 [Compound 137, (2S)-2-({5-amino-1-[(2-methoxy-4-{[(1R,4R)-5-methyl-2,5-diaza-bicyclo[2.2.1]heptan-2-yl]methyl}-phenyl]methyl]-1H-pyrazolo[4,3-d]pyrimidin-7-yl}amino)-3-cyclopropylpropan-1-ol]	576 nM	13.2 nM
CCCCNc1nc(N)nc2cnn(Cc3ccc(CN4C[C@H]5CNC[C@H]5C4)cc3OC)c12 [Compound 143, 1-[(4-{[(3aR/6aS)-octahydropyrrolo [3,4-c]pyrrol-2-yl]methyl}-2-methoxyphenyl)methyl]-N7-butyl-1H-pyrazolo[4,3-d]pyrimidine-5,7-diamine]	62.2 nM	1.29 nM
COc1cc(CN2C[C@H]3CNC[C@H]3C2)ccc1Cn1ncc2nc(N)nc(NCC3CC(C4CC4)C3)c21 (stereo partly drawn) [Compound 113, 1-[(4-{[(3aR,6aS)-octahydro-pyrrolo[3,4-c]pyrrol-2-yl]methyl}-2-methoxyphenyl)methyl]-N7-[(3-cyclopropylcyclobutyl)methyl]-1H-pyrazolo[4,3-d]pyrimidine-5,7-diamine]	22.2 nM	43.2 nM
CCCCNc1nc(N)nc2c(C)nn(Cc3ccc(C(=O)N4C[C@H]5C[C@@H]4CN5C)cc3OC)c12 [Compound 114, N7-butyl-1-({2-methoxy-4-[(1R,4R)-5-methyl-2,5-diazabicyclo-[2.2.1]heptane-2-carbonyl]phenyl}-methyl)-3-methyl-1H-pyrazolo[4,3-d]pyrimidine-5,7-diamine]	120 nM	15.4 nM
